# Laboratory results as given in patent US9809602B2, “Compounds for treating viral infections” (INSTITUT PASTEUR KOREA, priority 2014, dated 2017).
# System: genotype 1/2 chimeric cell culture derived HCV (HCVcc)
# Assay: Genotype 1/2 chimeric HCVcc assay (nano-luciferase, HCV replication)
# Format: cell-based
# Details: Hepatitis C virus
# Summary of the method: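 EC50 (replication, nano-luciferase) and CC50 (viability, cellular ATP) were determined by non-linear regression 72 h after infection with a reporter HCVcc chimera carrying genotype 1a structural and 2a JFH-1 non-structural proteins. Compound was applied to Huh-7.5 cells 2 h before inoculation.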
Structure (SMILES),"EC50 (Huh7.5, 72 h)",EC50
Cc1sc(NC(=O)C(=O)NCc2c(-n3cccc3)sc3c2CCNC3)c(C(=O)OC(C)(C)C)c1C [Compound 361],100 to 1000 nM,–
Cc1sc(NC(=O)NCc2c(-c3cccc(Cl)c3)sc3c2CCNC3)c(C(=O)OC(C)(C)C)c1C [Compound 363],< 100 nM,–
Cc1sc(NC(=O)NCc2c(-c3cccc(F)c3)sc3c2CCNC3)c(C(=O)OC(C)(C)C)c1C [Compound 364],< 100 nM,–
Cc1sc(NC(=O)NCc2c(-c3cccc(Cl)c3)sc3c2CCN(CCN(C)C)C3)c(C(=O)OC(C)(C)C)c1C [Compound 365],100 to 1000 nM,–
Cc1sc(NC(=O)NCc2c(-c3cccc(F)c3)sc3c2CCN(CCN(C)C)C3)c(C(=O)OC(C)(C)C)c1C [Compound 366],< 100 nM,–
Cc1sc(NC(=O)NCc2c(C(F)(F)F)sc3c2CCN(CCN(C)C)C3)c(C(=O)OC(C)(C)C)c1C [Compound 367],< 100 nM,–
Cc1sc(NC(=O)NCc2c(-c3ccc(F)cc3)sc3c2CCNC3)c(C(=O)OC(C)(C)C)c1C [Compound 368],100 to 1000 nM,–
Cc1sc(NC(=O)NCc2c(-c3ccc(Cl)cc3)sc3c2CCNC3)c(C(=O)OC(C)(C)C)c1C [Compound 369],< 100 nM,–
COc1sc(NC(=O)NCc2c(C(F)(F)F)sc3c2CCNC3)c(C(=O)OC(C)(C)C)c1C [Compound 371],< 100 nM,–
CC(C)(C)OC(=O)c1c(NC(=O)NCc2c(C(F)(F)F)sc3c2CCN(CCO)C3)sc2c1CCCC2 [Compound 373],< 100 nM,–
NC(=O)c1c(NC(=O)NCc2c(C(F)(F)F)sc3c2CCNC3)sc2c1CCCC2 [Compound 374],1000 to 10000 nM,–
O=C(NCCCN1CCC(N2CCCCC2)CC1)C1=Cc2sc3c(c2CS1)CCCC3 [Compound 1001],–,100 to 1000 nM
O=C(NCCCN1CCC(N2CCCCC2)CC1)c1cc2c(s1)CCCC2 [Compound 1002],–,> 10000 nM
O=C(NCCCN1CCC(N2CCCCC2)CC1)c1ccc(C2CCCCC2)cc1 [Compound 1003],–,100 to 1000 nM
O=C(NCCCN1CCCC1)c1cc2c(s1)CCCC2 [Compound 1004],–,> 10000 nM
O=C(NCCCN1CCC(N2CCCCC2)CC1)c1ccc(-c2ccccc2)cc1 [Compound 1005],–,100 to 1000 nM
O=C(NCCCN1CCCC1)c1ccc(C2CCCCC2)cc1 [Compound 1006],–,1000 to 10000 nM
O=C(c1ccc(C2CCCCC2)cc1)N1CCC(N2CCCCC2)CC1 [Compound 1007],–,1000 to 10000 nM
O=C(NCCCN1CCC(N2CCCCC2)CC1)c1ccc2cc[nH]c2c1 [Compound 1008],–,> 10000 nM
O=C(NCCCN1CCC(N2CCCCC2)CC1)c1cc2ccccc2s1 [Compound 1009],–,1000 to 10000 nM
O=C(NCCCN1CCC(N2CCCCC2)CC1)c1cc2ccccc2[nH]1 [Compound 1010],–,1000 to 10000 nM

Structure (SMILES),"EC50 (Huh7.5, 72 h)",EC50
O=C(NCCCN1CCC(N2CCCCC2)CC1)c1ccccc1-c1ccccc1 [Compound 1011],–,> 10000 nM
O=C(NCCCN1CCC(N2CCCCC2)CC1)c1ccc(Cc2ccccc2)cc1 [Compound 1012],–,100 to 1000 nM
O=C(NCCCN1CCC(N2CCCCC2)CC1)c1ccc(Oc2ccccc2)cc1 [Compound 1013],–,100 to 1000 nM
Cc1cccc(-c2ccc(C(=O)NCCCN3CCC(N4CCCCC4)CC3)cc2)c1 [Compound 1014],–,1000 to 10000 nM
Cc1ccccc1-c1ccc(C(=O)NCCCN2CCC(N3CCCCC3)CC2)cc1 [Compound 1015],–,100 to 1000 nM
Cc1ccc(-c2ccc(C(=O)NCCCN3CCC(N4CCCCC4)CC3)cc2)cc1 [Compound 1016],–,100 to 1000 nM
COc1ccccc1-c1ccc(C(=O)NCCCN2CCC(N3CCCCC3)CC2)cc1 [Compound 1017],–,1000 to 10000 nM
COc1cccc(-c2ccc(C(=O)NCCCN3CCC(N4CCCCC4)CC3)cc2)c1 [Compound 1018],–,100 to 1000 nM
O=C(NCCCN1CCC(N2CCCCC2)CC1)c1ccc(-c2ccc(C(F)(F)F)cc2)cc1 [Compound 1019],–,100 to 1000 nM
O=C(NCCCN1CCC(N2CCCCC2)CC1)c1ccc(-c2ccc(F)cc2)cc1 [Compound 1020],–,100 to 1000 nM
O=C(NCCCN1CCC(N2CCCCC2)CC1)c1ccc(-c2ccc(Cl)cc2)cc1 [Compound 1021],–,100 to 1000 nM
COc1ccc(-c2ccc(C(=O)NCCCN3CCC(N4CCCCC4)CC3)cc2)cc1 [Compound 1022],–,< 100 nM
O=C(NCCCN1CCC(N2CCCCC2)CC1)c1ccc(-c2cccs2)cc1 [Compound 1023],–,100 to 1000 nM
O=C(NCCCN1CCC(N2CCCCC2)CC1)c1ccc(-c2ccncc2)cc1 [Compound 1024],–,> 10000 nM
O=C(NCCCN1CCC(N2CCCCC2)CC1)c1cccc(-c2ccccc2)c1 [Compound 1025],–,1000 to 10000 nM
O=C(NCCCN1CCC(N2CCCCC2)CC1)c1ccc(-c2cccc(C(F)(F)F)c2)cc1 [Compound 1027],–,100 to 1000 nM
O=C(NCCCN1CCC(N2CCCCC2)CC1)c1ccc(-c2ccccc2C(F)(F)F)cc1 [Compound 1028],–,100 to 1000 nM
O=C(NCCCN1CCC(N2CCCCC2)CC1)c1ccc(N2CCOCC2)cc1 [Compound 1029],–,> 10000 nM
O=C(NCCCN1CCC(N2CCCCC2)CC1)c1ccc(N2CCCCC2)cc1 [Compound 1030],–,1000 to 10000 nM
O=C(NCCCN1CCC(N2CCCCC2)CC1)c1cccc(Oc2ccccc2)c1 [Compound 1031],–,1000 to 10000 nM
COc1ccc(Oc2ccc(C(=O)NCCCN3CCC(N4CCCCC4)CC3)cc2)cc1 [Compound 1032],–,100 to 1000 nM

Structure (SMILES),"EC50 (Huh7.5, 72 h)",EC50
O=C(NCCCN1CCC(N2CCCCC2)CC1)c1ccc(Oc2ccc(F)cc2)cc1 [Compound 1033],–,1000 to 10000 nM
O=C(NCCCN1CCC(N2CCCCC2)CC1)c1ccc(Oc2ccc(Br)cc2)cc1 [Compound 1034],–,1000 to 10000 nM
N#Cc1ccc(Oc2ccc(C(=O)NCCCN3CCC(N4CCCCC4)CC3)cc2)cc1 [Compound 1035],–,> 10000 nM
O=C(NCCCN1CCN(Cc2ccccc2)CC1)c1ccc(Oc2ccccc2)cc1 [Compound 1036],–,1000 to 10000 nM
O=C(NCCCN1CCN(C2CCCCC2)CC1)c1ccc(Oc2ccccc2)cc1 [Compound 1037],–,> 10000 nM
O=C(NCCCN1CCN(C(=O)C2CCCCC2)CC1)c1ccc(Oc2ccccc2)cc1 [Compound 1038],–,> 10000 nM
O=C(NCCCN1CCN(C(=O)c2ccccc2)CC1)c1ccc(Oc2ccccc2)cc1 [Compound 1039],–,> 10000 nM
O=C(NCCCN1CCN(c2ccccc2)CC1)c1ccc(Oc2ccccc2)cc1 [Compound 1040],–,1000 to 10000 nM
O=C(NCCCN1CCC(c2ccccc2)CC1)c1ccc(Oc2ccccc2)cc1 [Compound 1041],–,1000 to 10000 nM
O=C(NCCCN1CCC(Cc2ccccc2)CC1)c1ccc(Oc2ccccc2)cc1 [Compound 1042],–,1000 to 10000 nM
O=C(NCCCN1CCC(N2CCCCC2)CC1)c1ccc(OCc2ccc(F)cc2)cc1 [Compound 1043],–,1000 to 10000 nM
O=C(NCCN1CCC(N2CCCCC2)CC1)c1ccc(Oc2ccccc2)cc1 [Compound 1044],–,1000 to 10000 nM
O=C(NCCCCN1CCC(N2CCCCC2)CC1)c1ccc(Oc2ccccc2)cc1 [Compound 1045],–,100 to 1000 nM
c1ccc(Oc2ccc(CNCCCN3CCC(N4CCCCC4)CC3)cc2)cc1 [Compound 1046],–,100 to 1000 nM
CN(CCCN1CCC(N2CCCCC2)CC1)C(=O)c1ccc(Oc2ccccc2)cc1 [Compound 1047],–,1000 to 10000 nM
O=C(Nc1ccc(N2CCC(N3CCCCC3)CC2)cc1)c1ccc(Oc2ccccc2)cc1 [Compound 1048],–,1000 to 10000 nM
O=C(Nc1cccc(N2CCC(N3CCCCC3)CC2)c1)c1ccc(Oc2ccccc2)cc1 [Compound 1049],–,100 to 1000 nM
O=C(NCCCN1CCC(N2CCOCC2)CC1)c1ccc(Oc2ccccc2)cc1 [Compound 1050],–,1000 to 10000 nM
O=C(NCCCOc1ccc(N2CCCCC2)cc1)c1ccc(Oc2ccccc2)cc1 [Compound 1051],–,> 10000 nM
O=C(CCCN1CCC(N2CCCCC2)CC1)Nc1ccc(Oc2ccccc2)cc1 [Compound 1052],–,100 to 1000 nM
O=C(NCCC(=O)N1CCC(N2CCCCC2)CC1)c1ccc(Oc2ccccc2)cc1 [Compound 1053],–,1000 to 10000 nM

Structure (SMILES),"EC50 (Huh7.5, 72 h)",EC50
O=C(c1ccc(Oc2ccccc2)cc1)N1CCC(C(=O)N2CCC(N3CCCCC3)CC2)C1 (stereo not shown) [Compound 1054],–,> 10000 nM
O=C(NCCCN1CCC(c2ccncc2)CC1)c1ccc(Oc2ccccc2)cc1 [Compound 1055],–,> 10000 nM
O=C(NCCCN1CCC(Oc2ccccc2)CC1)c1ccc(Oc2ccccc2)cc1 [Compound 1056],–,1000 to 10000 nM
O=C(NCCNc1ccc(N2CCCCC2)cc1)c1ccc(Oc2ccccc2)cc1 [Compound 1057],–,1000 to 10000 nM
O=C(NCCCN1CCC(Nc2ccccc2)CC1)c1ccc(Oc2ccccc2)cc1 [Compound 1058],–,1000 to 10000 nM
O=C(NC1CC(N2CCC(N3CCCCC3)CC2)C1)c1ccc(Oc2ccccc2)cc1 (stereo not shown) [Compound 1059],–,1000 to 10000 nM
O=S(=O)(NCCCN1CCC(N2CCCCC2)CC1)c1ccc(Oc2ccccc2)cc1 [Compound 1060],–,100 to 1000 nM
O=C(NCCCN1CCC(N2CCCCC2)CC1)c1ccc(Oc2ccccc2F)cc1 [Compound 1061],–,1000 to 10000 nM
O=C(NCCCN1CCC(N2CCCCC2)CC1)c1ccc(Oc2cccc(F)c2)cc1 [Compound 1062],–,> 10000 nM
COc1ccccc1Oc1ccc(C(=O)NCCCN2CCC(N3CCCCC3)CC2)cc1 [Compound 1063],–,> 10000 nM
COc1cccc(Oc2ccc(C(=O)NCCCN3CCC(N4CCCCC4)CC3)cc2)c1 [Compound 1064],–,> 10000 nM
CN1CCC(C2CCN(CCCNC(=O)c3ccc(Oc4ccccc4)cc3)CC2)CC1 [Compound 1065],–,100 to 1000 nM
O=C(NCCCN1CCC(N2CCCCC2)CC1)c1ccc2c(c1)NC(=O)c1ccccc1S2 [Compound 1066],–,1000 to 10000 nM
O=C(NCCCN1CCC(N2CCCC2)CC1)c1ccc(Oc2ccccc2)cc1 [Compound 1067],–,100 to 1000 nM
CN(C)C1CCN(CCCNC(=O)c2ccc(Oc3ccccc3)cc2)CC1 [Compound 1068],–,100 to 1000 nM
CC(C)C1CCN(C2CCN(CCCNC(=O)c3ccc(Oc4ccccc4)cc3)CC2)CC1 [Compound 1069],–,100 to 1000 nM
O=C(NCCCN1CCC(N2CCCCC2)CC1)c1ccc(Nc2ccccc2)cc1 [Compound 1070],–,1000 to 10000 nM
O=C(NCCCN1CCC(C2CCCCC2)CC1)c1ccc(Oc2ccccc2)cc1 [Compound 1071],–,1000 to 10000 nM
O=C(NCCCN1CCC(C2CCNCC2)CC1)c1ccc(Oc2ccccc2)cc1 [Compound 1072],–,1000 to 10000 nM
